The results in this text go back to patent publication US11332438B2, “Creatine prodrugs, compositions and methods of use thereof” (Ultragenyx Pharmaceutical Inc., priority 2017, dated 2022).

One data set concerns ARPE-19 cells. Briefly: Creatine prodrug uptake and d3-creatine release in ARPE-19 cells (Table 4A). It is filed as cell-based, human. As to conditions: 50 μM, 6 h, cytosol fraction, corrected for total protein. The procedure: At the end of the incubation, supernatant will be collected from each well to assess prodrug recovery. Cells are then washed 3× with PBS. Plates, prodrugs in supernatant, prodrugs in serum-free medium are stored at −80° C. until harvest (within 5 days). On the day of extraction, 130 uL of lysis buffer (10 mM Tris pH 7.4) with EDTA-free protease inhibitors is added to each well and cells are removed using a cell scraper. Lysates are further homogenized using a handheld pestle and then centrifuged at 16,000 g, […], for 10 minutes to collect cytosol fraction. Pellets will be stored at −80° C. until further analysis. A 4× volume of stop solution (80% ACN/20% water) will be added to the cytosol fraction, supernatant and medium. Samples will be centrifuged at 15,890 g (13,000 rpm) at 4° C. for 10 mins. Supernatant will be collected and stored at −80° C. within 5 days prior to LC-MS/MS analysis. Dosing solutions for each prodrug (10 μM) will be assayed to verify concentration. Cells alone with vehicle will serve as controls to assess background signal for LC-MS/MS. Two independent runs of experiment will be conducted.
Nine fatty acid amide creatine prodrugs were tested in human ARPE-19 cells to assess prodrug uptake and d3-Cr release inside the cells. 50 μM of prodrug was incubated in culture medium with the cells and the cells were harvested at 6 h. Quantitation of prodrugs, d3-Cr (d3-creatine) and d3-Cm (d3-creatinine) in the cytosol fraction was corrected for total protein concentration.

The target in data set [1] is T1, recombinant human FAAH enzyme (rFAAH) (Homo sapiens, UniProt O00519).
T1 sequence (O00519 1-579): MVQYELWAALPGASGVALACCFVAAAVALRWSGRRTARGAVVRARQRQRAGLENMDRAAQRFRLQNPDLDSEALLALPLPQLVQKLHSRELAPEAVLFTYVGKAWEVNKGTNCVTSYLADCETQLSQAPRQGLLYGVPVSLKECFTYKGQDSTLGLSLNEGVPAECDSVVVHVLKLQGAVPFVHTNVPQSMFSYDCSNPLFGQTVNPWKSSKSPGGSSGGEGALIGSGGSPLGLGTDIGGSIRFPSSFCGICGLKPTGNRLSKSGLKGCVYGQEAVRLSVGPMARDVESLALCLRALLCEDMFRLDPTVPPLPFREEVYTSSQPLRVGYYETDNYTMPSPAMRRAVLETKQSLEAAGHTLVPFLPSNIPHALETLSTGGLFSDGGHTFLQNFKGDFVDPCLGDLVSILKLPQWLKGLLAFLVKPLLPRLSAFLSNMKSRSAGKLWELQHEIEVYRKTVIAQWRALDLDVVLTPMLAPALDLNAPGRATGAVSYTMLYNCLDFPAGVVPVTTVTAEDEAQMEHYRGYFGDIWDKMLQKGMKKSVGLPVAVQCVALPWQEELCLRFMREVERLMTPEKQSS
Description: Direct prodrug cleavage with recombinant human FAAH enzyme (rFAAH): d3-Cr release and d3-Crn cyclization. It counts as biochemical. As to conditions: 200 μM prodrug, 3 h; result in words. The procedure: For assessment of the ability of prodrugs to release creatine, and to release creatine preferentially to unwanted cyclization to creatinine, d3-labeled (deuterium labeled methyl group) prodrugs are incubated with brain homogenates (e.g., mouse, human) specially prepared to preserve FAAH activity or with rFAAH for direct cleavage study. The use of d3-labelled prodrugs is essential in order to distinguish prodrug-derived creatine (d3-creatine) from high concentrations of endogenous (non-labeled) creatine. […] Prodrugs are tested at final concentrations of 20 μM and 200 μM. Approximately 3-4 mg of homogenate is used for each reaction. Co-factor (NADPH) is included at a final concentration of 1 mM. FAAH activity is confirmed by conversion of 7-amino-4-methyl Coumarin-Arachidonamide to 7-amino-4-methyl Coumarin by fluorescent assay. Negative controls include incubations without brain homogenate/rFAAH (but with NADPH) or 65° C. heat inactivated brain homogenate/rFAAH to assess non-enzymatic prodrug cleavage under the conditions of the assay and FAAH inhibitor […] at the concentration of 1 μM. Prodrug incubations are prepared by addition of 8 μL of prodrug stock solution (500 or 5000 μM in DMSO or DMSO/methanol) to assay buffered, followed by addition of brain homogenate/rFAAH. […] The samples are centrifuged at 15890×g for 10 minutes at 4° C., followed by transfer of the supernatants for storage at −20° C. pending LC-MS/MS analysis. Sample supernatants are analyzed by LC-MS/MS for determination of d3-prodrug, d3-creatine and d3-creatinine levels.
Deuterated creatine prodrugs were tested in 3 different in vitro assays to assess d3-creatine (d3-Cr) release and cyclization to form d3-creatinine (d3-Crn). These assays were 1) direct cleavage with recombinant human FAAH enzyme (rFAAH), 2) cleavage in mouse brain homogenates (MBH), and 3) human brain homogenates (HBH).
Creatine prodrug cleavage efficiency was determined by percentage of net d3-Cr release in μM (positive reaction subtracted from negative control of no brain homogenate/rFAAH or inactivated brain homogenate/rFAAH) over nominal input concentration of 200 μM prodrug at 3 h. Propensity for creatinine cyclization was determined by percentage of d3-Crn generated in μM in positive reaction over nominal input concentration of 200 μM prodrug at 3 h.

Data set [2] in a line: Prodrug cleavage in human brain homogenates (HBH): d3-Cr release and d3-Crn cyclization. It counts as in vitro ADME. The following applies: in vitro cleavage assays (Table 3A). The gist of the method: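 d3-labelled prodrugs (20 and 200 μM final) incubated with FAAH-preserving human brain homogenate (~3-4 mg) or rFAAH plus 1 mM NADPH; controls without enzyme, heat-inactivated enzyme, or 1 μM FAAH inhibitor […]. LC-MS/MS of d3-Cr and d3-Crn at 3 h, each expressed as percent of 200 μM input, net of control for d3-Cr.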

Data set [3] can be described thus: In vivo IV dosing in CrT KO mice: prodrug, d3-Cr and d3-Crn in brain (Table 5). The following applies: CrT KO mouse brain, BQL prodrug = 41.2 ng/mL. Summed up:
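CrT KO mice received prodrugs by IV injection at 10, 15 or 25 mg/kg. Brains were collected, flash frozen and homogenized in 100 mM KPI buffer with anti-proteases. Prodrug, d3-Cr and d3-Crn were quantified by LC-MS/MS and expressed as brain concentration (macrocycles) or AUC over time (linear prodrugs).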

Turning to `Cl.[H]/N=C(/NC(=O)CCCCCCC/C=C\CCCCCCCC)N(CC(=O)OCCCCCCC)C([2H])([2H])[2H]` [Compound 2, (Z)-heptyl 2-(1-trideuteriomethyl-3-oleoylguanidino)acetate Hydrochloride], the “prodrug, Cellular Uptake” value in the data set on ARPE-19 cells was “BQL”. Besides, in data set [1], the “Prodrug Cleavage rFAAH d3-Crn release (yes/no)” value was “yes” and the “Prodrug Cleavage rFAAH net d3-Cr release (yes/no)” value is “no”.

As to `Cl.[2H]C([2H])([2H])N(CC(=O)OCC)C(=N)NC(=O)CCCCCCCCCC` [Compound 8], the “d3-Crn (creatinine) cyclization in vitro (in words)” value is recorded as “predominantly creatinine cyclization” in data set [2] and “predominantly cyclized into creatinine” in data set [2] (listed as Compound 8). Also, the “AUClast prodrug in the brain” value in data set [3] (IV 15 mg/kg) is given as “BQL”.

Take `Cl.[2H]C([2H])([2H])N(CC(=O)OCCCCCCC)C(=N)NC(=O)CCCCCCCCCCCC` [Compound 11]: the “prodrug, Cellular Uptake” value with ARPE-19 cells was “BQL”. Moreover, in data set [1], the “Prodrug Cleavage rFAAH d3-Crn release (yes/no)” value was “yes” and the “Prodrug Cleavage rFAAH net d3-Cr release (yes/no)” value is on record as “no”. Further, the “AUClast prodrug in the brain” value in data set [3] (IV 10 mg/kg) is “BQL”.
